From US10975093B2, “Fused 1,4-diazepines as BET protein degraders” (THE REGENTS OF THE UNIVERSITY OF MICHIGAN, priority 2016, dated 2021)

Key:
[1] = tested on: MDA-MB-231; test: Cell growth inhibition, CellTiter-Glo Luminescent Cell Viability Assay, MDA-MB-231; type: cell-based; conditions: MDA-MB-231 cells, 4 days incubation
Protocol: (§1) Cell growth inhibitory activity of representative Compounds of the Disclosure was determined in various cell lines using CellTiter-Glo® Luminescent Cell Viability Assay. Cells were seeded in 384-well white opaque cell culture plates at a density of 2,000 cells/well with serially diluted compounds and incubated at 37° C. in an atmosphere of 95% air and 5% CO2 for 4 days. Cell viability was determined using the CellTiter-Glo® Luminescent Cell Viability Assay Kit (Promega, Madison, Wis.) according to the manufacture's instruction. Briefly, a volume of CellTiter-Glo® Reagent equal to the volume of cell culture medium was added to each well, and then the plates were incubated at room temperature for 10-20 minutes. The luminescent signal was measured using a Tecan Infinite M1000 multimode microplate reader (Tecan, Morrisville, N.C.). The half maximal inhibitory concentration (IC50) was calculated using the GraphPad Prism 5 software (GraphPad Software, La Jolla, Calif.).

[2] = tested on: MOLM-13; test: Cell growth inhibition, CellTiter-Glo Luminescent Cell Viability Assay, MOLM-13; type: cell-based; conditions: MOLM-13 cells, 4 days incubation
Protocol: as §1

Compound	IC50 ([1]; Homo sapiens, MDA-MB-231, 96 h)	IC50 ([2]; Homo sapiens, MOLM-13, 96 h)	IC50 [1]	IC50 [2]
Cc1ncsc1-c1ccc([C@H](C)NC(=O)[C@@H]2C[C@@H](O)CN2C(=O)[C@@H](NC(=O)COCCOCCn2cc(C#Cc3sc4c(c3C)C(c3ccc(Cl)cc3)=N[C@@H](C)c3nnc(C)n3-4)cn2)C(C)(C)C)cc1 [compound 201, (2S,4R)-1-((S)-2-(2-(2-(2-(4-(((S)-4-(4-chlorophenyl)-3,6,9-trimethyl-6H-thieno[3,2-f][1,2,4]triazolo[4,3-a][1,4]diazepin-2-yl)ethynyl)-1H-pyrazol-1-yl)ethoxy)ethoxy)acetamido)-3,3-dimethylbutanoyl)-4-hydroxy-N-((S)-1-(4-(4-methylthiazol-5-yl)phenyl)ethyl)pyrrolidine-2-carboxamide]	24.9 nM	2.1 ± 0.32 nM	–	–
Cc1c(C#Cc2ccc(CCC#Cc3cccc4c3CN(C3CCC(=O)NC3=O)C4=O)cn2)sc2c1C(c1ccc(Cl)cc1)=N[C@@H](C)c1nnc(C)n1-2 (stereo partly drawn) [compound 182, 3-(4-(4-(6-(((S)-4-(4-chlorophenyl)-3,6,9-trimethyl-6H-thieno[3,2-f][1,2,4]triazolo[4,3-a][1,4]diazepin-2-yl)ethynyl)pyridin-3-yl)but-1-yn-1-yl)-1-oxoisoindolin-2-yl)piperidine-2,6-dione]	1.7 nM	2.8 nM	–	–
Cc1c(C#Cc2cnn(CCCC#Cc3cccc4c3C(=O)N(C3CCCNC3=O)C4=O)c2)sc2c1C(c1ccc(Cl)cc1)=NCc1nnc(C)n1-2 (stereo not drawn) [compound 159, 4-(5-(4-((4-(4-chlorophenyl)-3,9-dimethyl-6H-thieno[3,2-f][1,2,4]triazolo[4,3-a][1,4]diazepin-2-yl)ethynyl)-1H-pyrazol-1-yl)pent-1-yn-1-yl)-2-(2-oxopiperidin-3-yl)isoindoline-1,3-dione]	> 100 nM	> 100 nM	–	–
Cc1c(C#Cc2cnn(CCCN3CCN(c4cccc5c4C(=O)N(C4CCC(=O)NC4=O)C5=O)CC3)c2)sc2c1C(c1ccc(Cl)cc1)=N[C@@H](C)c1nnc(C)n1-2 (stereo partly drawn) [compound 178, 4-(4-(3-(4-(((S)-4-(4-chlorophenyl)-3,6,9-trimethyl-6H-thieno[3,2-f][1,2,4]triazolo[4,3-a][1,4]diazepin-2-yl)ethynyl)-1H-pyrazol-1-yl)propyl)piperazin-1-yl)-2-(2,6-dioxopiperidin-3-yl)isoindoline-1,3-dione]	0.6 nM	1 nM	–	–
Cc1c(C#Cc2cnn(CCCCCc3ccc4c(c3)CN(C3CCC(=O)NC3=O)C4=O)c2)sc2c1C(c1ccc(Cl)cc1)=N[C@@H](C)c1nnc(C)n1-2 (stereo partly drawn) [compound 180, 3-(5-(5-(4-(((S)-4-(4-chlorophenyl)-3,6,9-trimethyl-6H-thieno[3,2-f][1,2,4]triazolo[4,3-a][1,4]diazepin-2-yl)ethynyl)-1H-pyrazol-1-yl)pentyl)-1-oxoisoindolin-2-yl)piperidine-2,6-dione]	0.04 nM	0.2 nM	–	–
Cc1c(C#Cc2cnn(C[C@H]3CC[C@H](Nc4cccc5c4CN(C4CCC(=O)NC4=O)C5=O)CC3)c2)sc2c1C(c1ccc(Cl)cc1)=N[C@@H](C)c1nnc(C)n1-2 (stereo partly drawn) [compound 171, 3-(4-(((1S,4r)-4-((4-(((S)-4-(4-chlorophenyl)-3,6,9-trimethyl-6H-thieno[3,2-f][1,2,4]triazolo[4,3-a][1,4]diazepin-2-yl)ethynyl)-1H-pyrazol-1-yl)methyl)cyclohexyl)amino)-1-oxoisoindolin-2-yl)piperidine-2,6-dione]	0.9 nM	0.6 nM	1 nM	0.8 nM
Cc1c(C#Cc2cnn(CCCN3CC(Nc4cccc5c4CN(C4CCC(=O)NC4=O)C5=O)C3)c2)sc2c1C(c1ccc(Cl)cc1)=N[C@@H](C)c1nnc(C)n1-2 (stereo partly drawn) [compound 177, 3-(4-((1-(3-(4-(((S)-4-(4-chlorophenyl)-3,6,9-trimethyl-6H-thieno[3,2-f][1,2,4]triazolo[4,3-a][1,4]diazepin-2-yl)ethynyl)-1H-pyrazol-1-yl)propyl)azetidin-3-yl)amino)-1-oxoisoindolin-2-yl)piperidine-2,6-dione]	–	0.6 nM	–	–
Cc1ncsc1-c1ccc([C@H](C)NC(=O)[C@@H]2COCCN2C(=O)[C@@H](NC(=O)COCCCn2cc(C#Cc3sc4c(c3C)C(c3ccc(Cl)cc3)=N[C@@H](C)c3nnc(C)n3-4)cn2)C(C)(C)C)cc1 [compound 202, (S)-4-((S)-2-(2-(3-(4-(((S)-4-(4-chlorophenyl)-3,6,9-trimethyl-6H-thieno[3,2-f][1,2,4]triazolo[4,3-a][1,4]diazepin-2-yl)ethynyl)-1H-pyrazol-1-yl)propoxy)acetamido)-3,3-dimethylbutanoyl)-N-((S)-1-(4-(4-methylthiazol-5-yl)phenyl)ethyl)morpholine-3-carboxamide]	–	91.6 nM	–	–

The remaining compounds from weak to strong by IC50 ([1]; Homo sapiens, MDA-MB-231, 96 h), led by results:

IC50 ([1]; Homo sapiens, MDA-MB-231, 96 h)	IC50 ([2]; Homo sapiens, MOLM-13, 96 h)	IC50 [1]	IC50 [2]	Compound
37.5 nM	–	–	–	Cc1ncsc1-c1ccc([C@H](C)NC(=O)[C@@H]2C[C@@H](F)CN2C(=O)[C@@H](NC(=O)COCCCn2cc(C#Cc3sc4c(c3C)C(c3ccc(Cl)cc3)=N[C@@H](C)c3nnc(C)n3-4)cn2)C(C)(C)C)cc1 [compound 203]
12.2 nM	8.7 nM	–	–	Cc1c(C#Cc2cnn(CCCCn3cnc(CNc4cccc5c4CN(C4CCC(=O)NC4=O)C5=O)c3)c2)sc2c1C(c1ccc(Cl)cc1)=NCc1nnc(C)n1-2 (stereo not drawn) [compound 152, 3-(4-(((1-(4-(4-((4-(4-chlorophenyl)-3,9-dimethyl-6H-thieno[3,2-f][1,2,4]triazolo[4,3-a][1,4]diazepin-2-yl)ethynyl)-1H-pyrazol-1-yl)butyl)-1H-imidazol-4-yl)methyl)amino)-1-oxoisoindolin-2-yl)piperidine-2,6-dione]
4.4 nM	2.3 nM	–	–	Cc1c(C#Cc2cnn(C[C@H]3CC[C@@H](Nc4cccc5c4CN(C4CCC(=O)NC4=O)C5=O)CC3)c2)sc2c1C(c1ccc(Cl)cc1)=N[C@@H](C)c1nnc(C)n1-2 (stereo partly drawn) [compound 172, 3-(4-(((1R,4s)-4-((4-(((S)-4-(4-chlorophenyl)-3,6,9-trimethyl-6H-thieno[3,2-f][1,2,4]triazolo[4,3-a][1,4]diazepin-2-yl)ethynyl)-1H-pyrazol-1-yl)methyl)cyclohexyl)amino)-1-oxoisoindolin-2-yl)piperidine-2,6-dione]
1.7 nM	–	–	–	Cc1c(C#Cc2cnn(CCOCCOCCNc3cccc4c3CN(C3CCC(=O)NC3=O)C4=O)c2)sc2c1C(c1ccc(Cl)cc1)=N[C@@H](C)c1nnc(C)n1-2 (stereo partly drawn) [compound 188, 3-(4-((2-(2-(2-(4-(((S)-4-(4-chlorophenyl)-3,6,9-trimethyl-6H-thieno[3,2-f][1,2,4]triazolo[4,3-a][1,4]diazepin-2-yl)ethynyl)-1H-pyrazol-1-yl)ethoxy)ethoxy)ethyl)amino)-1-oxoisoindolin-2-yl)piperidine-2,6-dione]
0.1 nM	0.5 nM	–	–	Cc1c(C#Cc2cnn(CCCCNc3ccc4c(c3)CN(C3CCC(=O)NC3=O)C4=O)c2)sc2c1C(c1ccc(Cl)cc1)=N[C@@H](C)c1nnc(C)n1-2 (stereo partly drawn) [compound 184, 3-(5-((4-(4-(((S)-4-(4-chlorophenyl)-3,6,9-trimethyl-6H-thieno[3,2-f][1,2,4]triazolo[4,3-a][1,4]diazepin-2-yl)ethynyl)-1H-pyrazol-1-yl)butyl)amino)-1-oxoisoindolin-2-yl)piperidine-2,6-dione]
